Experimental data taken from article PMC5478686, “Direct Anandamide Activation of TRPV1 Produces Divergent Calcium and Current Responses” (Frontiers in Molecular Neuroscience, 2017).

Legend:
second-order NTS neurons = assay: Spontaneous glutamate release (sEPSCs) onto second-order NTS neurons in horizontal brainstem slices; type: cell-based, rat
[1] = test system: T1, recombinant rat TRPV1 (TRPV1-GFP); assay: Whole-cell patch-clamp in HEK293 cells transfected with TRPV1-GFP; type: cell-based; details: for current reversal potential: current-voltage plots, n = 9 cells
T1 construct: expressed in transfected cells; host or cells: HEK293 cells (ATCC), transient transfection with lipofectamine 2000
Method: (§1) To generate TRPV1-GFP, the full-length rat TRPV1 coding region (NCBI accession number NM_031982.1) without stop codon was PCR amplified from nodose ganglion cDNA using the primers below and inserted into the HindIII and EcoRI sites of pEGFP-N1 (Clontech).
Clonal COS-7 cells (ATCC® Manassas, VA, USA) were plated on glass coverslips at a density of 250,000 cells per well of a 6-well tissue culture plate. HEK293 cells (ATCC® Manassas, VA, USA) were plated on glass coverslips at a density of 50,000 cells per well of a 12-well plate. COS-7 and HEK293 cells were maintained in DMEM (Invitrogen), 10% FCS (Atlanta Biologicals), 25 units/ml penicillin and 25 μg/ml streptomycin (Sigma). Approximately 24 h after plating, media was replaced with DMEM, 10% FCS without pen/strep and cells were transiently transfected overnight. COS-7 cells were transfected with 2 μg of TRPV1-GFP and 2.4 μl lipofectamine 2000 (Invitrogen) per well. HEK293 cells were transfected with 1 μg of TRPV1-GFP and 1.2 μl lipofectamine 2000 per well. COS-7 cells were used for calcium imaging and HEK293 cells were used for electrophysiological recordings 1–2 days following transfection.
Whole cell recordings were performed on dissociated nodose ganglion neurons or transfected HEK293 cells using an inverted Olympus IX50 microscope and on NTS neurons contained in horizontal brainstem slices using an upright Nikon FN1 microscope. For HEK293 cell experiments, TRPV1-GFP+ cells were identified visually using 488 nm light illuminations prior to patching. […]
Whole cell currents taken from isolated nodose ganglion cells or transfected HEK 293 cells were normalized to the membrane capacitance to control for variability in cell size. […] For brainstem slice recordings the digitized waveforms of synaptic events were analyzed using an event detection and analysis program (MiniAnalysis, Synaptosoft, Decatur, GA, USA) for all quantal synaptic currents and Clampfit 10 (Molecular Devices) for all ST-stimulated currents. All events >10 pA were counted for frequency values. […]

TRPV1 [2] = molecular target: T2, TRPV1 (Rattus norvegicus, UniProt O35433); assay: Whole-cell patch-clamp current recordings in dissociated nodose ganglion neurons; type: cell-based
T2 construct: endogenous in cells; host or cells: dissociated nodose ganglion neurons from male Sprague Dawley rats (primary culture, used within 24 h)
T2 sequence (O35433 whole entry): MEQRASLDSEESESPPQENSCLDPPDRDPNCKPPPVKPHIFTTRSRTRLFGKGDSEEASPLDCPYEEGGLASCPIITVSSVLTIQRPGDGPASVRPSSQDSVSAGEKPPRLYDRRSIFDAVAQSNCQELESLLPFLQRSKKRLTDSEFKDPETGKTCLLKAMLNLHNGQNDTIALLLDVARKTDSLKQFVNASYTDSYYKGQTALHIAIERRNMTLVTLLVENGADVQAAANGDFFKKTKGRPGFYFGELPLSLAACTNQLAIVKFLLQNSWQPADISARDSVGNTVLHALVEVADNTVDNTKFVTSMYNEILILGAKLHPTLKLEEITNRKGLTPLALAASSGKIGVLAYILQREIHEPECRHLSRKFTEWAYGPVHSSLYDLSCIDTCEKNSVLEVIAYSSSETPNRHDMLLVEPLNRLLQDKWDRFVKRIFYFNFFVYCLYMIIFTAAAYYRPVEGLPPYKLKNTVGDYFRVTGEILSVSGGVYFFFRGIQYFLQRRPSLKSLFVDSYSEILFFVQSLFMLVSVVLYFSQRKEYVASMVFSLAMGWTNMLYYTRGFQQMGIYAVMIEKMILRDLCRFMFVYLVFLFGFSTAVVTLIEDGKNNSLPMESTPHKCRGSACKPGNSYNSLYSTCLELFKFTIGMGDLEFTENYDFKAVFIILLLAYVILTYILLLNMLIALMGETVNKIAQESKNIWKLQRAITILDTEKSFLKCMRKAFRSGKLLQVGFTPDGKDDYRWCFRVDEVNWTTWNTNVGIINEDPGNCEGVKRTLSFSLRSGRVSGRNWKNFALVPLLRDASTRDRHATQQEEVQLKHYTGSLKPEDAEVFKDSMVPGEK
Method: (§2) Nodose ganglia were isolated bilaterally from rats and mice under a deep plane of anesthesia (Ketamine, 25 mg/100 g; with Xylazine, 2.5 mg/100 g) using aseptic surgical conditions previously reported (Lancaster and Weinreich, [2001]; Simasko et al., [2002]). Following a midline incision in the neck, the musculature was retracted and blunt dissection techniques were used to dissociate the vagal trunk from the common carotid artery. High-magnification optics (10–100× dissecting scope; Leica Microsystems, Buffalo Grove, IL, USA) were utilized to visualize the nodose ganglia and facilitate complete removal. Once isolated, nodose ganglia were desheathed and digested in Ca^2+/Mg^2+ free Hank’s Balanced Salt Solution containing 1 mg/mL of both Dispase II (Hoffmann La Roche) and Collagenase Type 1A (Sigma Aldrich; 90 min at 37°C in 95% air/5% CO2). Neurons were dispersed by gentle trituration through silicanized pipettes, and then washed in Dulbecco’s Modified Eagle’s Medium (DMEM) supplemented with 10% fetal bovine serum (FBS) and 1% penicillin-streptomycin. Dispersed cells were plated onto poly-lysine coated coverslips and maintained in DMEM+10% FBS (37°C in 95% air/5% CO2). Measurements were made within 24 h of isolation.
Liquid junction potentials were not corrected.

TRPV1 [3] = molecular target: T2, TRPV1; assay: Ratiometric Fura-2 calcium imaging in dissociated nodose ganglion (vagal afferent) neurons; type: cell-based; details: for effect on AEA-induced increase in cytosolic calcium: AEA 10 μM; for effect on CAP-induced increase in cytosolic calcium: CAP 100 nM
Method: as §2
Intracellular calcium measurements were made with the fluorescent Ca^2+ indicator Fura-2 AM (Molecular Probes, Eugene, OR, USA). Manipulations were made at room temperature in a physiological saline bath (in mM: 140 NaCl, 5 KCl, 2 CaCl2, 1 MgCl2, 6 glucose, 10 HEPES with pH adjusted to 7.4 with NaOH). High K^+ bath (HiK) had 55 mM KCl with an equimolar reduction of NaCl to 90 mM. Neurons on coverslips were loaded with 1 μM Fura-2-AM for 1 h followed by a 15 min wash for de-esterification. COS-7 cells on coverslips were loaded with 1 μM Fura-2-AM for 20 min followed by a 10 min was for de-esterification. Coverslips were mounted into a closed chamber and constantly perfused with physiological bath. Fluorescence was collected using a Nikon Eclipse Ti inverted microscope (Nikon Instruments Inc., Melville, NY, USA) with 40× oil immersion objective, and an Andor Zyla sCMOS digital camera (Andor, South Windsor, CT, USA). For COS-7 cell experiments, TRPV1-GFP+ cells were identified by imaging using an EGFP filter cube (Nikon) prior to Fura-2 imaging. Cells containing Fura-2 were alternatively excited with 340 nm and 380 nm light and fluorescence monitored at 510 nm. Data points were collected with MetaFluor software at 6 s time points. Ratios of fluorescence intensity were converted to Ca^2+ concentrations with a standard curve. Peak calcium responses were quantified, analyzed and compared statistically.
For each experiment, data were collected from three to four nodose ganglion cell cultures or plating of the clonal cells (COS-7). When possible, protocols were designed to be within subject and analyzed using repeated measures ANOVA followed by post hoc comparisons against control. Otherwise unpaired T-tests were used to compare between groups. Parameters of dose-response relationships (EC50, slope, maximum) were determined by sigmoid fit of the data. For antagonist studies (ruthenium red (RR), etc.) all neurons received each treatment and were compared using within subject t-tests. Data are expressed as the average ± SEM. Statistical analysis was performed using SigmaStat software (Systat Software Inc., San Jose, CA, USA).

[4] = test system: vagal afferent neurons taken from TRPV1 KO mice; assay: Fura-2 calcium imaging in vagal afferent neurons from TRPV1 KO mice; type: cell-based, mouse; details: any concentration tested, n = 15
Method: Male Sprague Dawley rats (120–250 g, Simonsen Laboratories) and male TRPV1 knockout mice (TRPV−/−) (20–30 g) (B6.129X1-Trpv1^tm1Jul/J, Jackson Laboratories) were used under procedures approved by the IACUC at Washington State University. Animals were housed under 12 h light/12 h dark conditions and fed standard pellet chow ad libitum. This study was carried out in accordance with the recommendations of the Guide for the Care and Use of Laboratory Animals, as drafted, updated and published by National Research Council. […]
(§3) Intracellular calcium measurements were made with the fluorescent Ca^2+ indicator Fura-2 AM (Molecular Probes, Eugene, OR, USA). […] Fluorescence was collected using a Nikon Eclipse Ti inverted microscope (Nikon Instruments Inc., Melville, NY, USA) with 40× oil immersion objective, and an Andor Zyla sCMOS digital camera (Andor, South Windsor, CT, USA). […] Cells containing Fura-2 were alternatively excited with 340 nm and 380 nm light and fluorescence monitored at 510 nm. […] Ratios of fluorescence intensity were converted to Ca^2+ concentrations with a standard curve. Peak calcium responses were quantified, analyzed and compared statistically.

[5] = test system: recombinant rat TRPV1 (TRPV1-GFP); assay: Fura-2 calcium imaging in COS-7 cells transfected with TRPV1-GFP; type: cell-based; details: COS-7 TRPV1-GFP; AEA n = 453 cells, CAP n = 492 cells
Method: as §1
Clonal COS-7 cells (ATCC® Manassas, VA, USA) were plated on glass coverslips at a density of 250,000 cells per well of a 6-well tissue culture plate. HEK293 cells (ATCC® Manassas, VA, USA) were plated on glass coverslips at a density of 50,000 cells per well of a 12-well plate. COS-7 and HEK293 cells were maintained in DMEM (Invitrogen), 10% FCS (Atlanta Biologicals), 25 units/ml penicillin and 25 μg/ml streptomycin (Sigma). […]
as §3

[6] = CAP 1 μM bath application, n = 13

Compound: COc1cc(CNC(=O)CCCC/C=C/C(C)C)ccc1O [CAP, capsaicin]
- change of sEPSC event amplitude or decay kinetics (second-order NTS neurons; [6]): no significant changes
- change of spontaneous glutamate release (sEPSC frequency) (second-order NTS neurons; [6]): dramatic increase
- current reversal potential [1]: 5 mV
- effect of removal of bath calcium on average amplitude of induced current (TRPV1 [2]; saturating CAP 10 μM, bath calcium 2 mM vs calcium free, n = 8): did not change

Compound: N.N.N.N.N.N.N.N.N.N.N.N.N.N.[Cl-].[Cl-].[Cl-].[Cl-].[Cl-].[Cl-].[O-2].[O-2].[Ru+3].[Ru+3].[Ru+4] [RR, ruthenium red]
- effect on AEA-induced increase in cytosolic calcium (TRPV1 [3]; RR 1 μM pretreatment): eliminated
- effect on CAP-induced increase in cytosolic calcium (TRPV1 [3]; RR 1 μM pretreatment): eliminated

Compound: CCCCC/C=C\C/C=C\C/C=C\C/C=C\CCCC(=O)NCCO [AEA, anandamide]
- cytosolic calcium increase in TRPV1 KO neurons [4]: failed to produce a calcium increase
- peak calcium response, smaller compared to CAP [5]: ~ 14%
- change of any sEPSC parameter (frequency, amplitude, decay-time constant) (second-order NTS neurons; AEA 30 μM, n = 16): failed to produce a significant change
- current reversal potential [1]: 5 mV
- current change, smaller than CAP ([1]; physiological bath, Vm = −60 mV): ~ 52%
- EC50 (TRPV1 [3]; cultured vagal afferent neurons, Fura-2, sigmoid fit, AM251 present for AEA, read-out: EC50 for Calcium (peak cytosolic calcium)): 1.95 ± 0.36 µM
- calcium response to 1st AEA exposure (time matched control) (TRPV1 [3]; repeated AEA, 1st response, N = 12): 113 ± 26
- calcium response to 2nd AEA exposure (time matched control) (TRPV1 [3]; repeated AEA, 2nd response, N = 12, P = 0.002 vs 1st): 43 ± 13
- EC50 (TRPV1 [2]): 9.8 ± 1.07 µM
- effect of addition of extracellular bath calcium on initial inward current (TRPV1 [2]; AEA applied in calcium free bath, then calcium containing bath, n = 8): significantly reduced
- inward current following removal of bath calcium vs standard bath (TRPV1 [2]; saturating AEA 30 μM, bath calcium 2 mM vs calcium free, n = 6): significantly larger

Compound: COc1cccc(NC(=O)/C=C/c2ccc(Cl)cc2)c1 [SB366791]
- effect on AEA-induced increase in cytosolic calcium (TRPV1 [3]; SB366791 10 μM pretreatment): eliminated
- effect on CAP-induced increase in cytosolic calcium (TRPV1 [3]; SB366791 10 μM pretreatment): eliminated
